Source: BindingDB's records for doi:10.1016/s0960-894x(00)00062-7 (University of Bristol, 2000)

Assay: Inhibition of 3 nM [3H]clonidine binding to rat kidney membrane imidazoline receptor I-1 in presence of rauwolscine

In the case of `N#CSc1ccc2oc(C3=NCCN3)cc2c1`, the IC50 is reported as 8.1 µM.
